# Where two headings read alike, the source gives them in different places.
# Experiments:
# Assay type in all cases: biochemical
# opioid receptor mu = biological target: T1, opioid receptor mu (Homo sapiens, UniProt P35372); test: GTPγ[35S] binding assay, antagonism of endorphin
# T1 construct: expressed in transfected cells
# Method: (§1) Membranes were prepared from cells as described (Bass et al, 1996). GTPγ[5S] binding assays were performed in a 96 well FlashPlate™ format in duplicate using […] GTPγ[^35S] and 5 μg membrane per well in assay buffer composed of 50 mM Tris HCl, pH 7.4, 5 mM MgCl2, 1 mM EDTA, 100 mM NaCl, 30 μM GDP, 0.1% bovine serum albumin and the following protease inhibitors: 100 μg/ml bacitracin, 100 μg/ml benzamidine, 5 μg/ml aprotinin, 5 μg/ml leupeptin. The assay mix was then incubated at 30° C. with increasing concentrations of antagonist (10^−10 M to 10^−5 M) for 10 minutes and challenged with the agonists BW-373U86 (1 nM), dynorphin-A (10 nM), […] (1 μM) for opioid receptors delta, kappa, and mu, respectively. The assays were performed at 30° C. for one hour. The FlashPlates were then centrifuged at 2000×g for 10 minutes. Stimulation of GTPγ[^35S] binding was then quantified using a Wallac Microbeta and Ki calculations were done using Prism™ by Graphpad.
# opioid receptor kappa = biological target: T2, opioid receptor kappa (Homo sapiens, UniProt P41145); test: GTPγ[35S] binding assay, antagonism of dynorphin-A
# T2 construct: expressed in transfected cells
# Method: as §1
# opioid receptor delta = biological target: T3, opioid receptor delta (Homo sapiens, UniProt P41143); test: GTPγ[35S] binding assay, antagonism of BW-373U86
# T3 construct: expressed in transfected cells
# Method: as §1
# [1] = read-out: Mu functional Ki (GTPγ[35S] binding)
# [2] = read-out: Kappa functional Ki (GTPγ[35S] binding)
# [3] = read-out: Delta functional Ki (GTPγ[35S] binding)
# [4] = average Ki, antagonism of endorphin (1 μM) at mu opioid receptor membranes, read-out: Mu functional Ki (GTPγ[35S] binding)
# [5] = average Ki, antagonism of dynorphin-A (10 nM) at kappa opioid receptor membranes, read-out: Kappa functional Ki (GTPγ[35S] binding)
# [6] = average Ki, antagonism of BW-373U86 (1 nM) at delta opioid receptor membranes, read-out: Delta functional Ki (GTPγ[35S] binding)
# [7] = read-out: Mu functional (GTPγ[35S] binding Ki)
# [8] = read-out: Kappa functional (GTPγ[35S] binding Ki)
# [9] = read-out: Delta functional (GTPγ[35S] binding Ki)
# [10] = average Ki, antagonism of endorphin (1 μM) stimulated GTPγ[35S] binding, mu opioid receptor membranes, read-out: Mu functional (GTPγ[35S] binding Ki)
# [11] = average Ki, antagonism of dynorphin-A (10 nM) stimulated GTPγ[35S] binding, kappa opioid receptor membranes, read-out: Kappa functional (GTPγ[35S] binding Ki)
# [12] = average Ki, antagonism of BW-373U86 (1 nM) stimulated GTPγ[35S] binding, delta opioid receptor membranes, read-out: Delta functional (GTPγ[35S] binding Ki)
# T2 sequence (P41145 whole entry): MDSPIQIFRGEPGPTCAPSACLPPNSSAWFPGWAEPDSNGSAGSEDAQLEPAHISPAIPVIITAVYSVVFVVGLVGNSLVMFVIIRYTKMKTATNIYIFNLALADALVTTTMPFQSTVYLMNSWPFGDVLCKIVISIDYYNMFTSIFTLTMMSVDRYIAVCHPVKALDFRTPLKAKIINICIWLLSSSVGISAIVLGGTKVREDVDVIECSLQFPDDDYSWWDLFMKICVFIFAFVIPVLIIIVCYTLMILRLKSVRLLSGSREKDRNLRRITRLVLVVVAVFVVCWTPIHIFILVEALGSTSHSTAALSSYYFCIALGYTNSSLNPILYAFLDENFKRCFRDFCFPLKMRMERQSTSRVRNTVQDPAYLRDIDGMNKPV
# T3 sequence (P41143 whole entry): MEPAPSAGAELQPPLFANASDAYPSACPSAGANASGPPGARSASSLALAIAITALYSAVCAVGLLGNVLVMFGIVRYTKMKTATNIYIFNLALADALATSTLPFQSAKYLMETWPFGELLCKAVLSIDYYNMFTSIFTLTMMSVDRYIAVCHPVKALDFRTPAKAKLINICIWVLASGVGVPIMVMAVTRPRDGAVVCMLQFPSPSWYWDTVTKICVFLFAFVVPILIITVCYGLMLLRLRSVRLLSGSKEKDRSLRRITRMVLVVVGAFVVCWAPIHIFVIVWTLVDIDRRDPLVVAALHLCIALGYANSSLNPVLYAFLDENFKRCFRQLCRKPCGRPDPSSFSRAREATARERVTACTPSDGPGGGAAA
# T1 sequence (P35372 whole entry): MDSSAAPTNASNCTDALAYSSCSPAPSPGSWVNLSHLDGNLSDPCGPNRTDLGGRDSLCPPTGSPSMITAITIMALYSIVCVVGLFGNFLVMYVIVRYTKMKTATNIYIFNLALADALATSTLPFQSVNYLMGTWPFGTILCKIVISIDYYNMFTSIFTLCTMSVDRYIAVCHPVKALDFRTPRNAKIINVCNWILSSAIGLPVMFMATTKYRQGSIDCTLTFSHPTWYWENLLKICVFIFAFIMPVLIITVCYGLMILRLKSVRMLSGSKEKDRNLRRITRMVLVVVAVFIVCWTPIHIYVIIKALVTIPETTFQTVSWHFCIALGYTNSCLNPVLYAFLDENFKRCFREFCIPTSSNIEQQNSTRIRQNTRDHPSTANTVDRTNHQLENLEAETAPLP
smiles,measurement,setting,value
Cc1cc(-c2ccc(C(N)=O)cc2C)ccc1CNCCC(C)C [4B-90],Ki,opioid receptor mu; [1],1.17 nM
same,Ki,opioid receptor kappa; [2],1.66 nM
same,Ki,opioid receptor delta; [3],1.66 nM
CC(C)CCNCc1cc(F)c(-c2ccc(C(N)=O)cc2Cl)cc1F [4B-80],Ki,opioid receptor mu; [1],13.7 nM
same,Ki,opioid receptor kappa; [2],9.5 nM
same,Ki,opioid receptor delta; [3],11.8 nM
CC(C)CCNCc1ccc(-c2ccc(C(N)=O)cc2Cl)cc1Cl [4B-65],Ki,opioid receptor mu; [1],10.8 nM
same,Ki,opioid receptor kappa; [2],2.15 nM
same,Ki,opioid receptor delta; [3],4.79 nM
Cc1cc(C(N)=O)cnc1-c1ccc(CNCCC(C)C)cc1 [4C-04],Ki,opioid receptor mu; [4],10.5 nM
same,Ki,opioid receptor kappa; [5],7.23 nM
same,Ki,opioid receptor delta; [6],21.9 nM
Cc1cc(C(N)=O)ccc1-c1ccc(CNCc2ccccc2F)cc1 [4B-26],Ki,opioid receptor mu; [7],4.55 nM
same,Ki,opioid receptor kappa; [8],3.32 nM
same,Ki,opioid receptor delta; [9],5.72 nM
CC(C)CCNCc1ccc(-c2ccc(C(N)=O)cc2OCc2ccccc2)cc1 [4B-45],Ki,opioid receptor mu; [1],40.2 nM
same,Ki,opioid receptor kappa; [2],9.84 nM
same,Ki,opioid receptor delta; [3],44.6 nM
CC(C)CCNCc1ccc(-c2cccc(-c3ncn[nH]3)c2)cc1 [7A-01],Ki,opioid receptor mu; [1],8.31 nM
same,Ki,opioid receptor kappa; [2],8.43 nM
same,Ki,opioid receptor delta; [3],26.1 nM
CC(C)CCNCc1cc(F)c(-c2cccc(C(N)=O)c2)cc1F [1A-08],Ki,opioid receptor mu; [10],70.9 nM
same,Ki,opioid receptor kappa; [11],87.3 nM
same,Ki,opioid receptor delta; [12],3160 nM
Cc1cc(C(N)=O)ccc1-c1ccc(CNCC2Cc3ccccc3C2)cc1 [4B-35],Ki,opioid receptor mu; [1],1.32 nM
same,Ki,opioid receptor kappa; [2],7.13 nM
same,Ki,opioid receptor delta; [3],0.687 nM
CC(C)CCNCc1c(F)cc(-c2ccc(C(N)=O)cc2)cc1F [1B-05],Ki,opioid receptor mu; [10],107 nM
same,Ki,opioid receptor kappa; [11],162 nM
same,Ki,opioid receptor delta; [12],3000 nM
Cc1cc(C(N)=O)ccc1-c1ccc(CNCCC(C)C)cn1 [1D-02],Ki,opioid receptor mu; [10],43.1 nM
same,Ki,opioid receptor kappa; [11],14.7 nM
same,Ki,opioid receptor delta; [12],4.33 nM
Cc1cc(C(N)=O)ccc1-c1ccc(CN[C@@H]2CCc3ccccc32)cc1 [4B-33],Ki,opioid receptor mu; [7],4.95 nM
same,Ki,opioid receptor kappa; [8],0.911 nM
same,Ki,opioid receptor delta; [9],2.49 nM
Cc1cc(CNCCC(C)C)ccc1-c1cccc(NS(C)(=O)=O)c1 [8A-02],Ki,"opioid receptor mu; average Ki, antagonism of endorphin (1 μM) at mu opioid receptor, read-out: Mu functional Ki (GTPγ[35S] binding)",1.15 nM
same,Ki,"opioid receptor kappa; average Ki, antagonism of dynorphin-A (10 nM) at kappa opioid receptor, read-out: Kappa functional Ki (GTPγ[35S] binding)",15.3 nM
same,Ki,"opioid receptor delta; average Ki, antagonism of BW-373U86 (1 nM) at delta opioid receptor, read-out: Delta functional Ki (GTPγ[35S] binding)",10.4 nM
Cc1cc(CNCCC(C)C)ccc1-c1ccc(C(N)=O)cc1 [1B-01],Ki,opioid receptor mu; [10],17.8 nM
same,Ki,opioid receptor kappa; [11],24.8 nM
same,Ki,opioid receptor delta; [12],13.6 nM
Cc1cc(C(N)=O)ccc1-c1cc(F)c(CNCCC2CCOCC2)c(F)c1 [4B-50],Ki,opioid receptor mu; [4],1.45 nM
same,Ki,opioid receptor kappa; [5],0.948 nM
same,Ki,opioid receptor delta; [6],0.135 nM
Cc1cc(C(N)=O)ccc1-c1ccc(CNCC2CCc3ccccc3O2)cc1 (stereo not drawn) [4B-36],Ki,opioid receptor mu; [1],1.45 nM
same,Ki,opioid receptor kappa; [2],6.5 nM
same,Ki,opioid receptor delta; [3],0.453 nM
Cc1cc(C(N)=O)ccc1-c1ccc(CNCc2cccnc2)cc1 [4B-43],Ki,opioid receptor mu; [1],70.2 nM
same,Ki,opioid receptor kappa; [2],8.95 nM
same,Ki,opioid receptor delta; [3],10.6 nM
NC(=O)c1cccc(-c2ccc(CNCC3CCCCO3)cc2Cl)c1 (stereo not drawn) [4A-12],Ki,opioid receptor mu; [7],15 nM
same,Ki,opioid receptor kappa; [8],18.2 nM
same,Ki,opioid receptor delta; [9],22.7 nM
Cc1cc(CNCCC(C)C)cc(C)c1-c1cccc(C(N)=O)c1 [1A-02],Ki,opioid receptor mu; [10],1.25 nM
same,Ki,opioid receptor kappa; [11],6.72 nM
same,Ki,opioid receptor delta; [12],2.59 nM
Cc1cc(C(N)=O)ccc1-c1ccc(CNCCC2CCOCC2)c(F)c1 [4B-60],Ki,opioid receptor mu; [1],3.9 nM
same,Ki,opioid receptor kappa; [2],1.49 nM
same,Ki,opioid receptor delta; [3],1.43 nM
NC(=O)c1cccc(-c2ccc(CNCCc3cscn3)cc2Cl)c1 [6A-02],Ki,opioid receptor mu; [1],12.4 nM
same,Ki,opioid receptor kappa; [2],473 nM
same,Ki,opioid receptor delta; [3],23.5 nM
Cc1cc(C(N)=O)ccc1-c1ccc(CNC2Cc3ccccc3C2)c(O)c1 [4B-88],Ki,opioid receptor mu; [1],0.134 nM
same,Ki,opioid receptor kappa; [2],0.78 nM
same,Ki,opioid receptor delta; [3],0.591 nM
NC(=O)c1cccc(-c2ccc(CNCCC3CCOCC3)cc2Cl)c1 [4A-08],Ki,opioid receptor mu; [7],3.44 nM
same,Ki,opioid receptor kappa; [8],12.9 nM
same,Ki,opioid receptor delta; [9],2.79 nM
Cc1cc(C(N)=O)ccc1-c1ccc(CNCC2Cc3ccccc3O2)cc1 (stereo not drawn) [4B-31],Ki,opioid receptor mu; [7],4.05 nM
same,Ki,opioid receptor kappa; [8],3.71 nM
same,Ki,opioid receptor delta; [9],1.09 nM
Cc1cc(-c2ncn[nH]2)ccc1-c1ccc(CNCCC(C)C)cc1F [7B-03],Ki,opioid receptor mu; [1],1.7 nM
same,Ki,opioid receptor kappa; [2],9.25 nM
same,Ki,opioid receptor delta; [3],28.2 nM
Cn1c(=O)n(C)c2cc(CNCc3ccc(-c4cccc(C(N)=O)c4)c(Cl)c3)ccc21 [6A-04],Ki,opioid receptor mu; [4],15 nM
same,Ki,opioid receptor kappa; [5],805 nM
same,Ki,opioid receptor delta; [6],32.3 nM
Cc1cc(C(N)=O)ccc1-c1ccc(CNC2Cc3ccccc3C2)cn1 [1D-03],Ki,opioid receptor mu; [7],0.541 nM
same,Ki,opioid receptor kappa; [8],2.93 nM
same,Ki,opioid receptor delta; [9],1.24 nM
Cc1cc(C(N)=O)ccc1-c1ccc(CN[C@H](C)c2ccccc2)cc1 [4B-41],Ki,opioid receptor mu; [1],61.4 nM
same,Ki,opioid receptor kappa; [2],13.5 nM
same,Ki,opioid receptor delta; [3],14.1 nM

# Reference: patent US7615651B2, “Diaryl, dipyridinyl and aryl-pyridinyl derivatives and uses thereof” (Pfizer Inc., priority 2006, dated 2009)
